This is an account of results in patent US7268152B2, “Glucocorticoid mimetics, methods of making them, pharmaceutical compositions, and uses thereof” (Boehringer Ingelheim Pharmaceuticals, Inc., priority 2002, dated 2007).

In assay [1] the test system is glucocorticoid receptor. As to the kind of experiment: One or more of the above assays (GR binding and GR cell assays; not specified which). The settings on record: in one or more of the above assays. Format: cell-based. As to the method: This assay uses fluorescence polarization (FP) to quantitate the ability of test compounds to compete with tetramethyl rhodamine (TAMRA)-labeled dexamethasone for binding to a human glucocorticoid receptor (GR) complex prepared from an insect expression system. The assay buffer was: 10 mM TES, 50 mM KCl, 20 mM Na2MoO4.2H2O, 1.5 mM EDTA, 0.04% w/v CHAPS, 10% v/v glycerol, 1 mM dithiothreitol, pH 7.4. Test compounds were dissolved to 1 mM in neat DMSO and then further diluted to 10×assay concentration in assay buffer supplemented with 10% v/v DMSO. Test compounds were serially diluted at 10×assay concentrations in 10% DMSO-containing buffer in 96-well polypropylene plates. […] Positive controls were reaction mixtures containing no test compound; negative controls (blanks) were reaction mixtures containing 0.7 μM to 2 μM dexamethasone. […] IC50 values were determined by iterative non-linear curve fitting of the FP signal data to a 4-parameter logistic equation.
B. Glucocorticoid Receptor Cell Assays
1. Induction of Aromatase in Fibroblasts (Cell Assay for Transactivation)
Dexamethasone, a synthetic ligand to the glucocorticoid receptor (GR), induces expression of aromatase in human foreskin fibroblast cells. The activity of aromatase is measured by the conversion of testosterone to estradiol in culture media.
On the day of the experiment, the media in the wells is replaced with fresh media. Cells are treated with test compounds to final concentrations of 10^−5 M to 10 ^−8 M, and testosterone to a final concentration of 300 ng/mL. Each well has a total volume of 100 μL. Samples are made in duplicates. Control wells include: (a) wells that receive testosterone only, and (b) wells that receive testosterone plus 2 μM of dexamethasone to provide maximum induction of aromatase. Plates are incubated at 37° C. overnight (15 to 18 hours), and supernatants are harvested at the end of incubation. […] The amount of estradiol is inversely proportional to the ELISA signals in each well. The extent of aromatase induction by test compounds is expressed as a relative percentage to dexamethasone. EC50 values of test compounds are derived by non-linear curve fitting.
2. Inhibition of IL-6 Production in Fibroblasts (Cell Assay for Transrepression)
Human foreskin fibroblast cells produce IL-6 in response to stimulation by pro-inflammatory cytokine IL-1.
On the next day, media in the wells is replaced with fresh media. Cells are treated with IL-1 (rhIL-1α, R&D Systems Cat. No. 200-LA) to a final concentration of 1 ng/mL, and with test compounds to final concentrations of 10 ^−5 M to 10 ^−8 M, in a total volume of 200 μL per well. Samples are done in duplicates. […] Positive control wells receive IL-1 only and represent maximum (or 100%) amount of IL-6 production. Plates are incubated at 37° C. overnight (15 to 18 hours), and supernatants are harvested at the end of incubation. IL-6 levels in the supernatants are determined by the ELISA kits for IL-6 (MedSystems Diagnostics GmbH, Vienna, Austria, Cat. No. BMS213TEN) according to manufacture's instructions. The extent of inhibition of IL-6 by test compounds is expressed in percentage relative to positive controls. IC50 values of test compounds are derived by non-linear curve fitting.
Evaluation of agonist or antagonist activity of compounds binding to the glucocorticoid receptor may be determined by any of the assays.
3. Modulation of Tyrosine Aminotransferase (TAT) Induction in Rat Hepatoma Cells
Testing of compounds for agonist or antagonist activity in induction of tyrosine aminotransferase (TAT) in rat hepatoma cells.
H4-II-E-C3 cells were incubated overnight in 96 well plates (20,000 cells/100 μL/well) in MEM medium containing 10% heat inactivated FBS and 1% nonessential amino acids. On the next day, cells were stimulated with the indicated concentrations of dexamethasone or test compound (dissolved in DMSO, final DMSO concentration 0.2%) for 18 hours. Control cells were treated with 0.2% DMSO.

For assay [2], the target named is T1, human glucocorticoid receptor (GR) complex (Homo sapiens, UniProt P04150).
T1 construct: made in house; host or cells: insect expression system (baculovirus lysate)
T1 sequence (P04150 1-777): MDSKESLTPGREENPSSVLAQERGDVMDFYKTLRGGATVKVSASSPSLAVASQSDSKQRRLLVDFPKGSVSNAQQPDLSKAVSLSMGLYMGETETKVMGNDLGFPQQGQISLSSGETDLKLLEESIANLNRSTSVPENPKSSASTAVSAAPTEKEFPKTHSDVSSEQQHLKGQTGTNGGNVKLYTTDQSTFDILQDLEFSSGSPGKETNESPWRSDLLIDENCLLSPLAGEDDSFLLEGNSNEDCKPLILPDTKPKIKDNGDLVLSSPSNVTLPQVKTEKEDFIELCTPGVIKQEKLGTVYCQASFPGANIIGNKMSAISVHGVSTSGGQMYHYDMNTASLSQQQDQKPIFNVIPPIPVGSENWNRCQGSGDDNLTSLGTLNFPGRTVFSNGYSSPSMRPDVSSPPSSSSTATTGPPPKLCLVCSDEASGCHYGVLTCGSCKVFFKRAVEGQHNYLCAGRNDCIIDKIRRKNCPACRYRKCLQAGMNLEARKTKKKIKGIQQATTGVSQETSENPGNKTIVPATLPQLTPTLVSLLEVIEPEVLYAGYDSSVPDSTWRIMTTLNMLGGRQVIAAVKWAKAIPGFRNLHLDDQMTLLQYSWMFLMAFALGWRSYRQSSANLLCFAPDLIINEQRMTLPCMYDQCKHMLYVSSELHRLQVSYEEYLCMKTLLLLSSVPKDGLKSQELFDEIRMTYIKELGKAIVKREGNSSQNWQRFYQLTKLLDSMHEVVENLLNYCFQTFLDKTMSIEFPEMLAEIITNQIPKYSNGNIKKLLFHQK
As to the kind of experiment: Glucocorticoid receptor competitive binding assay (fluorescence polarization). The settings on record: competition with TAMRA-labeled dexamethasone. The essentials:
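FP competition against 15 nM TAMRA-labeled dexamethasone (stock added) for GR complex in baculovirus insect-cell lysate, buffer 10 mM TES, 50 mM KCl, 20 mM molybdate, pH 7.4 with 1 mM DTT. Incubated 1 h at room temperature, read at ex 550/em 580 nm; IC50 from 4-parameter logistic fit.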

SMILES strings stand for the structures. Where only a bound is given, the exact number is not on record here.

Broadly, the IC50 is the point on the concentration scale where inhibition reaches its midpoint. A high value points to weaker potency.

Turning to `COc1ccc(F)cc1C(C)(C)CC(O)(Cc1cc(Br)cc(Br)c1)C(F)(F)F` (stereo not drawn) [2-(3,5-Dibromobenzyl)-1,1,1-trifluoro-4-(5-fluoro-2-methoxyphenyl)-4-methylpentan-2-ol], the “activity as agonists of the glucocorticoid receptor function” value (“activity” for short) in assay [1] is reported as “activity as agonists”. The compound further came in with an IC50 in assay [2] of at most 100 nM.
The corresponding values for `CC(C)(CC(O)(Cc1cc(Br)cc(Br)c1)C(F)(F)F)c1cc(F)ccc1O` (stereo not drawn) [2-[3-(3,5-Dibromobenzyl)-4,4,4-trifluoro-3-hydroxy-1,1-dimethylbutyl]-4-fluorophenol] are “activity as agonists” and at most 100 nM.
The corresponding values for `Cc1cc(C)cc(CC(O)(CC(C)(C)c2cccc3c2OCC3)C(F)(F)F)c1` (stereo not drawn) [4-(2,3-Dihydrobenzofuran-7-yl)-2-(3,5-dimethylbenzyl)-1,1,1-trifluoro-4-methylpentan-2-ol] are “activity as agonists” and at most 100 nM.
The corresponding values for `COc1ccc(F)cc1C(C)(C)CC(O)(Cc1cc(C)cc(Cl)c1)C(F)(F)F` (stereo not drawn) [2-(3-Chloro-5-methylbenzyl)-1,1,1-trifluoro-4-(5-fluoro-2-methoxyphenyl)-4-methylpentan-2-ol] are “activity as agonists” and at most 100 nM.
For the compound `CC(C)(CC(O)(Cc1ccc(C#N)cc1Cl)C(F)(F)F)c1cc(F)ccc1O` (stereo not drawn) [3-Chloro-4-[4-(5-fluoro-2-hydroxyphenyl)-2-hydroxy-4-methyl-2-trifluoromethylpentyl]benzonitrile], the “activity” value in assay [1] is on record as “activity as agonists”.
As for `COc1ccc(F)cc1C(C)(C)CC(O)(Cc1ccc(C#N)cc1Cl)C(F)(F)F` (stereo not drawn) [3-Chloro-4-[4-(5-fluoro-2-methoxyphenyl)-2-hydroxy-4-methyl-2-trifluoromethylpentyl]benzonitrile], the “activity” value in assay [1] is “activity as agonists”. The IC50 in assay [2] was at most 100 nM.
`COc1ccc(F)cc1C(C)(C)CC(O)(Cc1ccc(C#N)c2ccccc12)C(F)(F)F` (stereo not drawn) [4-[4-(5-Fluoro-2-methoxyphenyl)-2-hydroxy-4-methyl-2-trifluoromethylpentyl]naphthalene-1-carbonitrile]: the “activity” value in assay [1] is “activity as agonists”.
On the same count and under the same terms, for `CC(C)(CC(O)(Cc1ccc(C#N)cc1Cl)C(F)(F)F)c1ccc2c(c1)CCO2` (stereo not drawn) [3-Chloro-4-[4-(2,3-dihydrobenzofuran-5-yl)-2-hydroxy-4-methyl-2-trifluoromethylpentyl]benzonitrile] the value was “activity as agonists”; for `COc1cc(F)c(Br)cc1C(C)(C)CC(O)(Cc1ccc(C#N)cc1Cl)C(F)(F)F` (stereo not drawn) [4-[4-(5-Bromo-4-fluoro-2-methoxyphenyl)-2-hydroxy-4-methyl-2-trifluoromethylpentyl]-3-chlorobenzonitrile], “activity as agonists”; for `CC(C)(CC(O)(Cc1ccc(C#N)cc1Cl)C1CC1)c1cccc2c1OCC2` (stereo not drawn) [3-Chloro-4-[2-cyclopropyl-4-(2,3-dihydrobenzofuran-7-yl)-2-hydroxy-4-methylpentyl]benzonitrile], “activity as agonists”.
On the same count and under the same terms, the entry for `CC(C)(CC(O)(Cc1ccc(C#N)cc1Cl)C(F)(F)F)c1cccc(C(F)(F)F)c1` (stereo not drawn) [3-Chloro-4-[2-hydroxy-4-methyl-2-trifluoromethyl-4-(3-trifluoromethylphenyl)pentyl]benzonitrile] is “activity as agonists”; for `CC(C)(CC(O)(Cc1ccc(C#N)cc1Cl)C(F)(F)F)c1ccccc1C(F)(F)F` (stereo not drawn) [3-Chloro-4-[2-hydroxy-4-methyl-2-trifluoromethyl-4-(2-trifluoromethylphenyl)pentyl]benzonitrile] it is “activity as agonists”; for `Cc1cc(Br)cc(CC(O)(CC(C)(C)c2cc(F)ccc2O)C(F)(F)F)c1F` (stereo not drawn) [2-[3-(5-Bromo-2-fluoro-3-methylbenzyl)-4,4,4-trifluoro-3-hydroxy-1,1-dimethylbutyl]-4-fluorophenol] it is “activity as agonists”.
On the same count and under the same terms, the entry for `CCc1cccc(C(C)(C)CC(O)(Cc2ccc(C#N)cc2Cl)C(F)(F)F)c1O` (stereo not drawn) [3-Chloro-4-[4-(3-ethyl-2-hydroxyphenyl)-2-hydroxy-4-methyl-2-trifluoromethylpentyl]benzonitrile] is “activity as agonists”.
As to `Cc1ccc(F)cc1C(C)(C)CC(O)(Cc1ccc(C#N)cc1Cl)C(F)(F)F` (stereo not drawn) [3-Chloro-4-[4-(5-fluoro-2-methylphenyl)-2-hydroxy-4-methyl-2-trifluoromethylpentyl]benzonitrile], in assay [1], the “activity” value is “activity as agonists”.
Still for that read-out and setting: for `CC(C)(CC(O)(Cc1ccc(C#N)cc1Cl)C(F)(F)F)c1ccccc1` (stereo not drawn) [3-Chloro-4-(2-hydroxy-4-methyl-4-phenyl-2-trifluoromethylpentyl)benzonitrile] the value was “activity as agonists”; for `CC(C)(CC(O)(Cc1ccc(C(=O)C2CC2)cc1Cl)C1CC1)c1cccc2c1OCC2` (stereo not drawn) [{3-Chloro-4-[2-cyclopropyl-4-(2,3-dihydrobenzofuran-7-yl)-2-hydroxy-4-methylpentyl]phenyl}cyclopropylmethanone], “activity as agonists”; for `Cc1cccc(C(C)(C)CC(O)(Cc2ccc(C#N)cc2Cl)C2CC2)c1` (stereo not drawn) [3-Chloro-4-[2-cyclopropyl-2-hydroxy-4-methyl-4-(3-methylphenyl)pentyl]benzonitrile], “activity as agonists”.
The same measure, in the same setting: the entry for `COc1ccc(F)cc1C(C)(C)CC(O)(Cc1cc(C)cc(C)c1C#N)C(F)(F)F` (stereo not drawn) [2-[4-(5-Fluoro-2-methoxyphenyl)-2-hydroxy-4-methyl-2-trifluoromethylpentyl]-4,6-dimethylbenzonitrile] is “activity as agonists”.
